From patent US9060952B2, “Synergistic preservative blends” (LONZA LTD., priority 2008, dated 2015)
Where two headings read alike, the source gives them in different places. Values belong to the compound of their own block, whether it stands above or below them.

What was measured:
Assay in all cases: Minimum inhibitory concentration (MIC), broth dilution
[1] = tested on: P. aeruginosa ATCC 9027; set-up: species or system Pseudomonas aeruginosa; settings: for MIC: Pseudomonas aeruginosa
Protocol: (§1) Minimum inhibitory concentrations (MIC) were determined for individual components and binary formulations as follows. Individual bacterial suspensions of S. aureus (gram positive), E. coli and P. aeruginosa (both gram negative) and individual fungal suspensions of C. albicans and A. niger were prepared as described in Example 1. Each individual suspension was standardized with PBDW to yield a ˜10^8 CFU/mL or ˜10^7 cells/mL for the individual bacteria and fungi, respectively.
(§2) The individual components and binary formulations were diluted in either DI water or propylene glycol (as appropriate for solubility) to yield a 10,000 ppm total starting active solution. From the 10,000 ppm solution, a 1:9 dilution was made in sterile Nutrient Broth to yield a 1,000 ppm active solution. Five mL of the 1,000 ppm dilution was transferred to five mL of sterile Nutrient Broth (NB) to yield a 500 ppm active solution. This dilution scheme was repeated down to 3.90 ppm active. The same dilutions were made in sterile Sabouraud Dextrose Broth (SDB) for the fungal MIC testing. The series of nine active solutions (3.9 ppm˜1000 ppm) was prepared for each of the five microorganisms to be tested.
(§3) From the E. coli suspension, 0.1 mL was added to each of the nine, 5-mL active solutions in NB. Each tube was mixed thoroughly. This was repeated for each of the bacterial suspensions. Similarly, 0.1 mL of the C. albicans suspension was added to each of the nine, 5-mL active solutions in SDB. This was repeated with A. niger in a separate set of dilutions. Each tube was mixed thoroughly. Controls were prepared for each organism by inoculating 5 mL of NB or SDB, as appropriate. All three sets of bacterial tubes were incubated at 35° C. for 48 hours and the two sets of fungal tubes were incubated at 30° C. for 72 and 120 hours. At the end of the incubation period, the tubes were mixed and visually inspected for turbidity compared to the control. The lowest concentration with a lack of turbidity was recorded as the Minimum Inhibitory Concentration (MIC).
(§4) The synergism value is (QA/Qa+QB/Qb). QA is the concentration of component A in the mixture, Qa is the concentration of component A applied singly, QB is the concentration of component B in the mixture, Qb is the concentration of component B applied singly. When the synergism value is less than one, the mixture is synergistic. Values for (QA/Qa+QB/Qb) of 1 and greater than 1 represent an additive effect and an antagonistic effect, respectively.

[2] = tested on: E. coli ATCC 8739; set-up: species or system Escherichia coli; settings: for MIC: Escherichia coli
Protocol: as §1, §2, §3, §4

[3] = tested on: S. aureus ATCC 6538; set-up: species or system Staphylococcus aureus; settings: for MIC: Staphylococcus aureus
Protocol: as §1, §2, §3, §4

[4] = tested on: C. albicans ATCC 10231; set-up: species or system Candida albicans
Protocol: as §1, §2
(§5) From the E. coli suspension, 0.1 mL was added to each of the nine, 5-mL active solutions in NB. […] The lowest concentration with a lack of turbidity was recorded as the Minimum Inhibitory Concentration (MIC). […]

[5] = tested on: A. niger ATCC 16404; set-up: species or system Aspergillus niger
Protocol: as §1, §2, §5

Compound: Cn1sccc1=O [Methylisothiazolinone]
Qa, concentration of component A applied singly (MIC) ([1]; P. aeruginosa): 62.5 ppm
Qa, concentration of component A applied singly (MIC) ([2]; E. coli): 62.5 ppm
Qa, concentration of component A applied singly (MIC) ([3]; S. aureus): 250 ppm
Qa, concentration of component A applied singly (MIC) [4]: 250 ppm
Qa, concentration of component A applied singly (MIC) [5]: 500 ppm

Compound: CC(=O)C1C(=O)C=C(C)OC1=O (stereo not shown) [Dehydroacetic acid]
MIC ([1]; ATCC9027, read-out: Qb, concentration of component B applied singly (MIC)): 500 µg/mL
MIC ([2]; ATCC8739, read-out: Qb, concentration of component B applied singly (MIC)): 500 µg/mL
MIC ([3]; ATCC6538, read-out: Qb, concentration of component B applied singly (MIC)): 500 µg/mL

Compound: CCCCCCC(O)CO (stereo not shown) [Caprylyl Glycol]
Qa, concentration of component A applied singly (MIC) ([1]; P. aeruginosa): >1000 ppm
Qa, concentration of component A applied singly (MIC) ([2]; E. coli): 1000 ppm
Qa, concentration of component A applied singly (MIC) ([3]; S. aureus): >1000 ppm

Second part, the compound after the results:

MIC ([1]; ATCC9027, P. aeruginosa, read-out: Qa, concentration of component A applied singly (MIC)): > 1000 µg/mL
MIC ([2]; ATCC8739, E. coli, read-out: Qa, concentration of component A applied singly (MIC)): > 1000 µg/mL
MIC ([3]; ATCC6538, S. aureus, read-out: Qa, concentration of component A applied singly (MIC)): > 1000 µg/mL
Compound: CCCCCCCCCCCO [Undecanol]

Qb, concentration of component B applied singly (MIC) ([1]; P. aeruginosa): 62.5 ppm
Qb, concentration of component B applied singly (MIC) ([2]; E. coli): 62.5 ppm
Qb, concentration of component B applied singly (MIC) ([3]; S. aureus): 62.5 ppm
Qb, concentration of component B applied singly (MIC) [4]: 62.5 ppm
Qb, concentration of component B applied singly (MIC) [5]: 62.5 ppm
Compound: Cc1cc(CC(C)CC(C)(C)C)n(O)c(=O)c1.NCCO (stereo not shown) [Piroctone Olamine]
